{"source": "patent US20180258180A1", "about": "“COMBINATION THERAPY INVOLVING ANTIBODIES AGAINST CLAUDIN 18.2 FOR TREATMENT OF CANCER” (Ganymed Pharmaceuticals AG, priority 2012, published 2018)", "key": {"[1]": {"system": "CLDN18.2-positive (NUGC-4, KATO III) human target cell lines", "test": "IMAB362 ADCC with ZA/IL-2 expanded effector cells on CLDN18.2-positive target cell lines", "assay_type": "cell-based", "method": "These effector cell cultures were used in ADCC assays with CLDN18.2-positive (NUGC-4, KATO III) and negative (SK-BR-3) human target cell lines (E:T ratio 40:1). […] ADCC was measured in luciferase assays; cf. FIG. 15a. […] FIG. 15b. Same experiment as described in (a) was performed using NUGC-4 as target cells; cf. FIG. 15c. […] A purity of more than 97.0% Vγ9Vδ2 T cells in lymphocytes was obtained."}, "[2]": {"system": "CLDN18.2-transfected HEK293 cells", "test": "IMAB362 with ZA/IL-2 induced Vγ9Vδ2 T cells on HEK293~CLDN18.2 tumors in NSG mice", "assay_type": "in vivo", "settings": "200 μg semi-weekly, in the presence of human γδ T cells and ZA (and IL-2)", "method": "NSG mice lack mature T cells, B cells, natural killer (NK) cells, multiple cytokine signaling pathways, and they have many defects in innate immunity, whereas the niches in the primary and secondary immunological tissues are permissive to colonization by human immune cells.\nNSG mice were inoculated subcutaneously with 1×10^7˜CLDN18.2-transfected HEK293 cells. On the same day, mice received 8×10^6 human PBMCs enriched for Vγ9Vδ2 T cells, which were cultured for 14 days in ZA-supplemented medium. […] To maintain human T cells functional, IL-2 was administered semi-weekly and ZA weekly. […] In addition to 9 mice treated as described, two control groups of mice were established."}, "[3]": {"test": "Repeated dose toxicity study in cynomolgus monkeys", "assay_type": "in vivo", "settings": "up to 5 weekly applications of up to 100 mg/kg", "from_the_text": "(§1) This compartimentalization is lost upon malignant transformation rendering the epitope drugable by IMAB362."}, "[4]": {"system": "HEK293~CLDN18.2 transfectants", "test": "Early treatment of HEK293~CLDN18.2 tumor xenografts", "assay_type": "in vivo, nude mice", "settings": "200 μg twice per week for 6 weeks", "from_the_text": "(§2) Moreover, advanced tumor treatment experiments were initiated up to 9 days after tumor cell inoculation when tumors had reached volumes of about 60-120 mm^3.\nNude mice were subcutaneously inoculated with 1×10^7 HEK293˜CLDN18.2 transfectants. Treatment of 10 mice per group started 3 days after tumor inoculation. […] Not only time to death was prolonged, but 4 of 10 mice survived the entire observation period of 210 days."}, "[5]": {"system": "NUGC-4~CLDN18.2 xenograft tumors", "test": "Combination of IMAB362 and EOF regimen on NUGC-4~CLDN18.2 xenografts", "set-up": "species or system nude mice", "settings": "mouse, in vivo", "method": "Xenograft tumors were inoculated by injection of 1×10^7 NUGC-4˜CLDN18.2 cells subcutaneous into the flank of 10 nude mice (female, six weeks old) per treatment group. Mice were treated on day 3, 10, 17 and 24 with chemotherapeutic agents. IMAB362 treatment was continued weekly."}, "[6]": {"system": "NCI-N87~CLDN18.2 xenograft tumors", "test": "NCI-N87~CLDN18.2 gastric carcinoma xenografts, IMAB362 immunotherapy", "assay_type": "in vivo, nude mice", "settings": "800 μg i.v. weekly", "method": "NCI-N87˜CLDN18.2 xenograft tumors were inoculated subcutaneously by injection of 1×10^7 NCI-N87˜CLDN18.2 cells into the flank of 8 nude mice (female, 6 weeks old) per treatment group. […] Intravenous administration was continued weekly for the whole observation time. Tumor size and animal health was monitored semi-weekly. […] The size of s.c. tumors was measured twice weekly (mean+SEM, ***p<0.001). […] Mice were sacrificed, when tumor reached a volume of 1400 mm^3."}, "[7]": {"test": "Toxicity and PK/TK profile studies (any toxicity study)", "assay_type": "in vivo, mice and cynomolgus monkeys", "from_the_text": "as §1"}, "[8]": {"biological_target": "CLDN18.1 (Homo sapiens, UniProt P56856)", "sequence (P56856 whole entry)": "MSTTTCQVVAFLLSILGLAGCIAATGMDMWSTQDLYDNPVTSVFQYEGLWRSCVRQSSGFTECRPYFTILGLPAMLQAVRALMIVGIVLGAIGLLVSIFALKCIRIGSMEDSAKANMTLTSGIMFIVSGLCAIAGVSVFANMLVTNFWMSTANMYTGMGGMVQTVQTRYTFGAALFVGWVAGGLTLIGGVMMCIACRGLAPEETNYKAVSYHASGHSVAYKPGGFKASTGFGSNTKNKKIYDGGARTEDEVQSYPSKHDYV", "test": "IMAB362 binding to other claudin family members"}, "[9]": {"system": "CLDN18.2-negative HEK293 tumor cells", "test": "IMAB362 treatment of CLDN18.2-negative HEK293 tumors", "set-up": "species or system mice", "settings": "mouse, in vivo", "from_the_text": "(§3) Treatment of 9 to 10 mice per group was initiated when mean tumor volumes reached 88 mm^3 (62-126 mm^3). […] All mice in the groups treated with either PBS or isotype control died within 50-100 days. […] Three of these mice survived the entire observation period (FIG. 20). Importantly, antitumoral efficacy in vivo depends on the presence of the target on the tumor cells."}, "[10]": {"system": "NUGC-4 xenografts", "test": "Biodistribution of Dyelight 680-labeled antibodies in NUGC-4 xenografted nude mice", "settings": "live imaging"}, "[11]": {"system": "NCI-N87~CLDN18.2 xenograft tumors", "test": "Combination of IMAB362 and EOF regimen on NCI-N87~CLDN18.2 xenografts", "assay_type": "in vivo, nude mice", "method": "NCI-N87˜CLDN18.2 xenograft tumors were inoculated by injection of 1×10^7 NCI-N87˜CLDN18.2 cells subcutaneous into the flank of 9 mice for each treatment group. […] IMAB362 treatment was continued weekly. Tumor size and animal health was monitored semi-weekly. […] The size of s.c. tumors was measured twice weekly (mean+SEM; *p<0.05). […] Mice were sacrificed, when tumor reached a volume of 1400 mm^3."}, "[12]": {"system": "NUGC-4~CLDN18.2 xenografts", "test": "NUGC-4~CLDN18.2 xenografts, IMAB362 immunotherapy", "set-up": "species or system mice", "settings": "mouse, in vivo"}, "[13]": {"system": "NUGC-4 gastric cancer cells", "test": "NUGC-4 gastric tumor xenograft model", "assay_type": "in vivo, athymic nude mice", "from_the_text": "NUGC-4 cells grow aggressively in nude mice.\nTumor sizes were monitored twice weekly.\nWhen 1×10^7 tumor cells are inoculated in mice, the median survival time of untreated mice is not longer than 25 days. […] Mice were stratified size-dependently into treatment groups (FIG. 21)."}, "[14]": {"test": "Repeated dose toxicity study in mice", "assay_type": "in vivo", "settings": "weekly administration for 3 months, highest dose levels 400 mg/kg", "from_the_text": "as §1"}, "[15]": {"system": "HEK293~CLDN18.2 tumor xenografts", "test": "Treatment of advanced HEK293~CLDN18.2 tumor xenografts", "assay_type": "in vivo, nude mice", "from_the_text": "as §2, §3"}, "[16]": {"system": "CLS-103~cldn18.2 allograft tumors", "test": "Combination of IMAB362 and EOF on CLS-103~cldn18.2 allograft tumors", "set-up": "species or system NMRI mice", "settings": "mouse, in vivo", "from_the_text": "Tumor size and animal health were monitored semi-weekly. Mice were sacrificed, when tumor reached a volume of 1400 mm^3 or tumors became ulcerous."}}}
{"substance": "IMAB362: chimeric IgG1 antibody directed against CLDN18.2, developed by Ganymed Pharmaceuticals AG", "values": [{"measurement": "ADCC activity with Vγ9Vδ2 T cells isolated with >97% purity", "setting": "[1]; NUGC-4 targets, day 14", "value": "retained and partly improved"}, {"measurement": "ADCC activity against CLDN18.2-positive human tumor cell lines", "setting": "[1]; ZA/IL-2 cultured effector cells, E:T 40:1", "value": "Strong ADCC activity"}, {"measurement": "outgrowth of CLDN18.2-positive tumors", "setting": "[2]", "value": "significantly inhibited and nearly abrogated"}, {"measurement": "tolerability of repeated doses i.v.", "setting": "[3]", "value": "well tolerated"}, {"measurement": "mice surviving the entire observation period of 210 days", "setting": "[4]", "value": "4 of 10"}, {"measurement": "survival", "setting": "[4]; start 3 days after inoculation", "value": "survival benefit"}, {"measurement": "tumor growth compared to saline treated control group", "setting": "[5]", "value": "inhibited significantly the tumor growth"}, {"measurement": "survival time", "setting": "[6]", "value": "significantly (p<0.05) longer survival time"}, {"measurement": "tumor growth", "setting": "[6]; start 5 days after inoculation, versus saline", "value": "inhibited highly significant (p<0.001)"}, {"measurement": "gastric toxicity", "setting": "[7]; any toxicity study", "value": "no gastric toxicity"}, {"measurement": "adverse effects on male or female reproductive organs", "setting": "[7]; in vivo", "value": "No adverse effects"}, {"measurement": "binding to tissues lacking the target", "setting": "[7]; in vivo", "value": "does not bind"}, {"measurement": "immune activation and cytokine release", "setting": "[7]; in vivo", "value": "does not induce"}, {"measurement": "systemic or local toxicity", "setting": "[7]; repeated doses i.v., mice and cynomolgus monkeys", "value": "No signs of systemic or local toxicity"}, {"measurement": "binding to any other claudin family member including CLDN18.1", "setting": "[8]", "value": "does not bind"}, {"measurement": "antitumoral effects", "setting": "[9]", "value": "No antitumoral effects"}, {"measurement": "retention of labeled antibody signal 120 hours after injection", "setting": "[10]", "value": "detectable in comparable intensity"}, {"measurement": "tumor growth compared to control mice", "setting": "[11]; IMAB362 800 μg weekly, EOF i.p. day 4, 11, 18, 25", "value": "highly significant suppressed tumor growth"}, {"measurement": "median survival", "setting": "[11]; saline control 59 days", "value": 76, "unit": "days"}, {"measurement": "survival", "setting": "[12]", "value": "significantly (p<0.05) longer survival"}, {"measurement": "tumor sizes at day 14 of treatment", "setting": "[12]", "value": "significant (p<0.05) smaller tumor sizes"}, {"measurement": "tumor growth compared to controls", "setting": "[13]; 200 μg twice weekly, starting 6 days after inoculation, p<0.05", "value": "significant inhibited"}, {"measurement": "median survival time", "setting": "[13]; non-significantly increased, versus 25 days", "value": 31, "unit": "days"}, {"measurement": "tumor volumes at day 21 after tumor inoculation compared to control mice", "setting": "[13]; p<0.05", "value": "significant smaller"}, {"measurement": "tumor growth rate", "setting": "[13]; treatment initiated at mean tumor size about 109 mm^3", "value": "significantly reduce tumor growth rate"}, {"measurement": "tolerability of repeated doses i.v.", "setting": "[14]", "value": "well tolerated"}, {"measurement": "median survival time", "setting": "[15]; 200 μg twice per week for 6 weeks, start at mean tumor volume 88 mm^3, versus 25 days", "value": 47, "unit": "days"}, {"measurement": "mice surviving the entire observation period", "setting": "[15]; 9 to 10 mice per group", "value": "Three"}, {"measurement": "survival", "setting": "[15]; advanced tumors", "value": "survival benefit"}, {"measurement": "tumor growth inhibition compared to saline control group", "setting": "[16]", "value": "no significant tumor growth inhibition"}]}
